{"source": "patent US4022903A", "about": "“α-Thienyl and α-substituted thienyl, phenyl and substituted phenyl cyclopropylomethanols useful as biodegradable insecticides and mollusicides” (Abbott Laboratories, priority 1975, dated 1977)", "key": {"[1]": {"tested_on": "mites", "assay": "Leaf Disc Mite Assay", "type": "in vivo", "settings": "48 hours, adult mites", "experimental": "A stock solution of 50,000 ppm is prepared. The solution consists of 25 percent DMF, 75 percent IPA and approximately 4 percent Tween 20. The stock solution is diluted (1:20) to a concentration of 2500 ppm using as a diluent 70 percent acetone containing 0.1 percent Tween 20. The 2500 ppm solution is used for the initial screen.\nLeaf discs 15 mm in diameter are cut from fresh Henderson Bush Lima Bean plants. Discs are then dropped in the appropriate dilution of the chemical being tested.\nThe leaf discs are allowed to dry and then placed on moistened filter paper in appropriately labeled petri dishes. Ten adult mites are placed on each disc. Nine discs are used for each compound. Percent mortality is determined after 48 hours.\nWhen a compound is rated very active, 1:10 dilutions are made of the 2500 stock."}, "[2]": {"tested_on": "Adult snails", "assay": "Molluscicide activity, adult snails", "type": "in vivo", "settings": "0/10-2/10 inactive, 3/10-7/10 partially active, 8/10-10/10 active"}, "[3]": {"tested_on": "newly hatched snails of the strain B. glabrata", "assay": "Molluscicide activity, newly hatched snails", "type": "in vivo", "settings": "24 hours, 26° C, 0/10-2/10 inactive, 3/10-7/10 partially active, 8/10-10/10 active"}, "[4]": {"assay": "Mice oral LD 50", "settings": "mouse, in vivo, orally"}}}
{"compound": "OC(c1ccc(Cl)cc1)(c1cccs1)C1CC1", "note": "(stereo not drawn) [compound 1]", "values": [{"measurement": "Mites, percent mortality (activity rating)", "setting": "[1]; 2500 ppm", "value": "SIA (25-50 percent is slightly active (SIA))"}, {"measurement": "Molluscicide, mortality, Adult", "setting": "[2]; 1 ppm", "value": "0/10"}, {"measurement": "Molluscicide, mortality, Adult", "setting": "[2]; 10 ppm", "value": "6/10"}, {"measurement": "Molluscicide, mortality, New", "setting": "[3]; 1 ppm", "value": "6/10"}, {"measurement": "Molluscicide, mortality, New", "setting": "[3]; 10 ppm", "value": "10/10"}]}
{"compound": "OC(c1ccc(C(F)(F)F)cc1)(c1cccs1)C1CC1", "note": "(stereo not drawn) [compound 2]", "values": [{"measurement": "Mites, percent mortality (activity rating)", "setting": "[1]; 2500 ppm", "value": "SIA (25-50 percent is slightly active (SIA))"}, {"measurement": "Molluscicide, mortality, Adult", "setting": "[2]; 1 ppm", "value": "0/10"}, {"measurement": "Molluscicide, mortality, Adult", "setting": "[2]; 10 ppm", "value": "6/10"}, {"measurement": "Molluscicide, mortality, New", "setting": "[3]; 1 ppm", "value": "4/10"}, {"measurement": "Molluscicide, mortality, New", "setting": "[3]; 10 ppm", "value": "10/10"}]}
{"compound": "OC(c1ccc(Cl)cc1)(c1ccc(Cl)s1)C1CC1", "note": "(stereo not drawn) [compound 4]", "values": [{"measurement": "Mites, percent mortality (activity rating)", "setting": "[1]; 500 ppm", "value": "A (50-80 percent mortality is rated active (A))"}, {"measurement": "Mites, percent mortality (activity rating)", "setting": "[1]; 2500 ppm", "value": "VA (80-100 percent mortality are rated very active (VA))"}, {"measurement": "Molluscicide, mortality, Adult", "setting": "[2]; 1 ppm", "value": "0/10"}, {"measurement": "Molluscicide, mortality, Adult", "setting": "[2]; 10 ppm", "value": "9/10"}, {"measurement": "Molluscicide, mortality, New", "setting": "[3]; 1 ppm", "value": "7/10"}, {"measurement": "Molluscicide, mortality, New", "setting": "[3]; 10 ppm", "value": "10/10"}]}
{"compound": "OC(c1ccc(C(F)(F)F)cc1)(c1ccc(Cl)s1)C1CC1", "note": "(stereo not drawn) [compound 5]", "values": [{"measurement": "Mites, percent mortality (activity rating)", "setting": "[1]; 500 ppm", "value": "A (50-80 percent mortality is rated active (A))"}, {"measurement": "Mites, percent mortality (activity rating)", "setting": "[1]; 2500 ppm", "value": "VA (80-100 percent mortality are rated very active (VA))"}, {"measurement": "Molluscicide, mortality, Adult", "setting": "[2]; 1 ppm", "value": "1/10"}, {"measurement": "Molluscicide, mortality, Adult", "setting": "[2]; 10 ppm", "value": "0/10"}, {"measurement": "LD50", "setting": "[4]", "value": "> 1000", "unit": "mg/kg"}, {"measurement": "Molluscicide, mortality, New", "setting": "[3]; 1 ppm", "value": "8/10"}, {"measurement": "Molluscicide, mortality, New", "setting": "[3]; 10 ppm", "value": "10/10"}]}
{"compound": "Cc1ccc(C(O)(c2ccc(Cl)s2)C2CC2)cc1", "note": "(stereo not drawn) [compound 7]", "values": [{"measurement": "Molluscicide, mortality, Adult", "setting": "[2]; 1 ppm", "value": "0/10"}, {"measurement": "Molluscicide, mortality, Adult", "setting": "[2]; 10 ppm", "value": "9/10"}, {"measurement": "LD50", "setting": "[4]", "value": "> 1000", "unit": "mg/kg"}, {"measurement": "Molluscicide, mortality, New", "setting": "[3]; 1 ppm", "value": "4/10"}, {"measurement": "Molluscicide, mortality, New", "setting": "[3]; 10 ppm", "value": "10/10"}]}
{"compound": "OC(c1ccc(Br)cc1)(c1ccc(Cl)s1)C1CC1", "note": "(stereo not drawn) [compound 8]", "values": [{"measurement": "Mites, percent mortality (activity rating)", "setting": "[1]; 2500 ppm", "value": "VA (80-100 percent mortality are rated very active (VA))"}, {"measurement": "Molluscicide, mortality, Adult", "setting": "[2]; 1 ppm", "value": "3/10"}, {"measurement": "Molluscicide, mortality, Adult", "setting": "[2]; 10 ppm", "value": "9/10"}, {"measurement": "Molluscicide, mortality, New", "setting": "[3]; 1 ppm", "value": "10/10"}, {"measurement": "Molluscicide, mortality, New", "setting": "[3]; 10 ppm", "value": "10/10"}]}
{"compound": "OC(c1ccc(F)cc1)(c1ccc(Cl)s1)C1CC1", "note": "(stereo not drawn) [compound 9]", "values": [{"measurement": "Molluscicide, mortality, Adult", "setting": "[2]; 1 ppm", "value": "0/10"}, {"measurement": "Molluscicide, mortality, Adult", "setting": "[2]; 10 ppm", "value": "9/10"}, {"measurement": "LD50", "setting": "[4]", "value": "> 300", "unit": "mg/kg"}, {"measurement": "Molluscicide, mortality, New", "setting": "[3]; 1 ppm", "value": "5/10"}, {"measurement": "Molluscicide, mortality, New", "setting": "[3]; 10 ppm", "value": "10/10"}]}
{"compound": "α-(5-Chloro-2-Thienyl)4-Chlorophenylcyclopropylmethanol [No. 4]", "values": [{"measurement": "Molluscicide, mortality, Adult", "setting": "[2]; 1 ppm", "value": "0/10"}, {"measurement": "Molluscicide, mortality, Adult", "setting": "[2]; 10 ppm", "value": "0/10"}, {"measurement": "Molluscicide, mortality, New", "setting": "[3]; 1 ppm", "value": "0/10"}, {"measurement": "Molluscicide, mortality, New", "setting": "[3]; 10 ppm", "value": "0/10"}]}
